Values after ≈ are worked out from the molar mass of the structure shown. Like-named read-outs stand apart in the source and are kept apart here.
Experiments:
[1] = test system: Bacillus subtilis ATCC 6633; assay: Antibacterial MIC, microdilution susceptibility test (CLSI); type: cell-based
Source text: (§1) The synthesized linezolid conjugates (3a–k, 5a–f, 7a–c, 9a–c, 11a–f, 13, and 15) were subjected for antimicrobial properties determination against Gram-positive (Staphylococcus aureus ATCC 6538, Bacillus subtilis ATCC 6633) and Gram-negative (Pseudomonas aeruginosa ATCC 15692, Escherichia coli ATCC 47076) bacteria by the standard technique.
(§2) Antibacterial properties of the synthesized compounds (3a–k, 5a–f, 7a–c, 9a–c, 11a–f, 13 and 15) were screened against Gram-positive (Staphylococcus aureus ATCC 6538, Bacillus subtilis ATCC 6633) and Gram-negative (Pseudomonas aeruginosa ATCC 15,692 and Escherichia coli ATCC 47076) bacteria utilizing the standard technique. Linezolid was used as a standard reference/drug in the current study. The tested bacterial strains were obtained from MERCIN Center, Faculty of Agriculture, Ain Shams University, Cairo, Egypt.
(§3) To determine the antibacterial activity, stock solutions of the tested compounds and standard reference were prepared with up to 100% DMSO and stored at […]. If necessary, the solutions were heated to 40–60 °C before testing to facilitate complete dissolution. Double distilled water was used in all dilutions prepared. […] A microdilution susceptibility test was used for MIC determination (Mueller–Hinton broth in 96-well plates) according to the CLSI (the Clinical and Laboratory Standards Institute, Malvern, PA, USA). The bacterial inoculum was adjusted to approximately 2.5–3 × 10^4 cells/mL in Mueller–Hinton broth and incubated in a ratio of 1:1 with the test derivatives in polystyrene 96-well flat-bottom microplates. Positive growth control (without test derivatives) and negative control (without bacteria) were included. The microplates were placed in an incubator set to 37 °C for 24 h. Absorbance was measured at 620 nm at the end of the incubation period. The cut-off level for follow-up studies was defined as a minimum of 90% inhibition of growth compared to the untreated sample. Experiments were conducted once in triplicate. For selected compounds, minimum inhibitory concentration (MIC) values were determined by dose–response experiments. Experiments were performed at least twice, in triplicate per concentration tested.

[2] = test system: Escherichia coli ATCC 47076; assay: as above; type: cell-based
Source text: as §1, §2, §3

[3] = test system: Pseudomonas aeruginosa ATCC 15692; assay: as above; type: cell-based
Source text: as §1, §2, §3

[4] = test system: Staphylococcus aureus ATCC 6538; assay: as above; type: cell-based
Source text: as §1, §2, §3

[5] = test system: Bacillus subtilis ATCC 6633; assay: microbe, parasite or virus in culture; design: species or system bacteria; Broth microdilution MIC in Mueller-Hinton broth, absorbance at 620 nm; details: ATCC6633, 24 h, read-out: Observed MIC, uM (B. subtilis)
Source text: as §3, with “Antibacterial properties of the synthesized compounds (3a–k, 5a–f, 7a–c, 9a–c, 11a–f, 13 and 15) were screened against Gram-positive (Staphylococcus aureus ATCC 6538, Bacillus subtilis ATCC 6633) and Gram-negative (Pseudomonas aeruginosa ATCC 15,692 and Escherichia coli ATCC 47076) bacteria utilizing the standard technique. Linezolid was used as a standard reference/drug in the current study. The tested bacterial strains were obtained from MERCIN Center, Faculty of Agriculture, Ain Shams University, Cairo, Egypt. To” for “To”

[6] = test system: Staphylococcus aureus ATCC 6538; assay: microbe, parasite or virus in culture; design: species or system bacteria; Broth microdilution MIC in Mueller-Hinton broth, absorbance at 620 nm; details: ATCC6538, 24 h, read-out: Observed MIC, uM (S. aureus)
Source text: as §3, with “Antibacterial properties of the synthesized compounds (3a–k, 5a–f, 7a–c, 9a–c, 11a–f, 13 and 15) were screened against Gram-positive (Staphylococcus aureus ATCC 6538, Bacillus subtilis ATCC 6633) and Gram-negative (Pseudomonas aeruginosa ATCC 15,692 and Escherichia coli ATCC 47076) bacteria utilizing the standard technique. Linezolid was used as a standard reference/drug in the current study. The tested bacterial strains were obtained from MERCIN Center, Faculty of Agriculture, Ain Shams University, Cairo, Egypt. To” for “To”

[7] = Bacillus subtilis, ATCC6633, 24 h, Mueller–Hinton broth, 37 °C, 24 h, read-out: MIC, μg/mL ± SE, B. Subtilis (ATCC 6633)
[8] = ATCC47076, Mueller–Hinton broth, 37 °C, 24 h, read-out: MIC, μg/mL ± SE, E. Coli (ATCC 47076)
[9] = ATCC47076, value in parentheses, read-out: MIC (μmol), E. Coli (ATCC 47076) (converted)
[10] = ATCC15692, Mueller–Hinton broth, 37 °C, 24 h, read-out: MIC, μg/mL ± SE, P. Aeruginosa (ATCC 15692)
[11] = ATCC15692, value in parentheses, read-out: MIC (μmol), P. Aeruginosa (ATCC 15692) (converted)
[12] = Staphylococcus aureus, ATCC6538, 24 h, Mueller–Hinton broth, 37 °C, 24 h, read-out: MIC, μg/mL ± SE, S. Aureus (ATCC 6538)
[13] = Bacillus subtilis, ATCC6633, as quoted in running text, read-out: MIC against B. subtilis
[14] = Bacillus subtilis, ATCC6633, value in parentheses, read-out: MIC (μmol), B. Subtilis (ATCC 6633) (converted)
[15] = Staphylococcus aureus, ATCC6538, as quoted in running text, read-out: MIC against S. aureus
[16] = Staphylococcus aureus, ATCC6538, value in parentheses, read-out: MIC (μmol), S. Aureus (ATCC 6538) (converted)

Row | Structure (SMILES) | MIC [1, 7] [µg/mL] | MIC [2, 8] [µg/mL] | MIC [2, 9] [µM] | MIC [3, 10] [µg/mL] | MIC [3, 11] [µM] | MIC [4, 12] [µg/mL] | MIC [5] [µM] | MIC [6] [µM] | MIC [1, 13] [µM] | MIC [1, 14] [µM] | MIC ([1]; read-out: MIC against B. subtilis) [µM] | MIC [4, 15] [µM] | MIC [4, 16] [µM] | MIC ([4]; read-out: MIC against S. aureus) [µM] | MIC ([3]; ATCC15692, read-out: MIC against P. aeruginosa) [µM]
1 | O=C(CNC(=O)OCc1ccccc1)NC[C@H]1CN(c2ccc(N3CCOCC3)c(F)c2)C(=O)O1 [Compound 3a, Benzyl (S)-(2-(((3-(3-fluoro-4-morpholinophenyl)-2-oxooxazolidin-5-yl)methyl)amino)-2-oxoethyl)carbamate] | 4 ± 0.3 | 32 ± 1 | 65.8 | 64 ± 1.4 | 132 | 16 ± 2.1 | 8.22 (≈ 4 µg/mL) | 32.9 (≈ 16 µg/mL) | – | – | – | – | – | – | –
2 | C[C@H](NC(=O)OCc1ccccc1)C(=O)NC[C@H]1CN(c2ccc(N3CCOCC3)c(F)c2)C(=O)O1 [Compound 3b, Benzyl ((S)-1-((((S)-3-(3-fluoro-4-morpholinophenyl)-2-oxooxazolidin-5-yl)methyl)amino)-1-oxopropan-2-yl)carbamate] | 32 ± 2.1 | 32 ± 2.5 | 63.9 | 64 ± 1.9 | 128 | 32 ± 1.5 | 63.9 (≈ 32 µg/mL) | 63.9 (≈ 32 µg/mL) | – | – | – | – | – | – | –
3 | CC(C)[C@H](NC(=O)OCc1ccccc1)C(=O)NC[C@H]1CN(c2ccc(N3CCOCC3)c(F)c2)C(=O)O1 [Compound 3c, Benzyl ((S)-1-((((S)-3-(3-fluoro-4-morpholinophenyl)-2-oxooxazolidin-5-yl)methyl)amino)-3-methyl-1-oxobutan-2-yl)carbamate] | 32 ± 2.7 | 32 ± 1.6 | 60.5 | 64 ± 2.9 | 121 | 32 ± 1.1 | 60.5 (≈ 32 µg/mL) | 60.5 (≈ 32 µg/mL) | – | – | – | – | – | – | –
4 | CSCC[C@H](NC(=O)OCc1ccccc1)C(=O)NC[C@H]1CN(c2ccc(N3CCOCC3)c(F)c2)C(=O)O1 [Compound 3d, Benzyl ((S)-1-((((S)-3-(3-fluoro-4-morpholinophenyl)-2-oxooxazolidin-5-yl)methyl)amino)-4-(methylthio)-1-oxobutan-2-yl)carbamate] | – | 32 ± 2 | 57.1 | 64 ± 3.1 | 114 | 32 ± 1.6 | 57.1 (≈ 32 µg/mL) | 57.1 (≈ 32 µg/mL) | – | – | – | – | – | – | –
5 | CC(C)[C@H](NC(=O)OC(C)(C)C)C(=O)NC[C@H]1CN(c2ccc(N3CCOCC3)c(F)c2)C(=O)O1 [Compound 3h, Tert-butyl ((S)-1-((((S)-3-(3-fluoro-4-morpholinophenyl)-2-oxooxazolidin-5-yl)methyl)amino)-3-methyl-1-oxobutan-2-yl)carbamate] | 32 ± 0.7 | 32 ± 1.1 | 64.7 | 32 ± 0.5 | 64.7 | 32 ± 1.3 | 64.7 (≈ 32 µg/mL) | 64.7 (≈ 32 µg/mL) | – | – | – | – | – | – | –
6 | CSCC[C@H](NC(=O)OC(C)(C)C)C(=O)NC[C@H]1CN(c2ccc(N3CCOCC3)c(F)c2)C(=O)O1 [Compound 3i, Tert-butyl ((S)-1-((((S)-3-(3-fluoro-4-morpholinophenyl)-2-oxooxazolidin-5-yl)methyl)amino)-4-(methylthio)-1-oxobutan-2-yl)carbamate] | 32 ± 1.4 | 32 ± 0.5 | 60.8 | 32 ± 0.8 | 60.8 | 32 ± 2.1 | 60.8 (≈ 32 µg/mL) | 60.8 (≈ 32 µg/mL) | – | – | – | – | – | – | –
7 | CC[C@H](C)[C@H](NC(=O)OC(C)(C)C)C(=O)NC[C@H]1CN(c2ccc(N3CCOCC3)c(F)c2)C(=O)O1 [Compound 3k, Tert-butyl ((2S,3S)-1-((((S)-3-(3-fluoro-4-morpholinophenyl)-2-oxooxazolidin-5-yl)methyl)amino)-3-methyl-1-oxopentan-2-yl)carbamate] | 32 ± 1.3 | 32 ± 2.1 | 62.9 | 32 ± 1.3 | 62.9 | 32 ± 2.1 | 62.9 (≈ 32 µg/mL) | 62.9 (≈ 32 µg/mL) | – | – | – | – | – | – | –
8 | O=C(NC[C@H]1CN(c2ccc(N3CCOCC3)c(F)c2)C(=O)O1)c1ccc(F)cc1 [Compound 5b, (S)-4-Fluoro-N-((3-(3-fluoro-4-morpholinophenyl)-2-oxooxazolidin-5-yl)methyl) benzamide] | 1 ± 0.1 | 32 ± 2.4 | 76.7 | 32 ± 1.2 | 76.7 | 4 ± 0.1 | – | – | 2.33 to 2.5 | 2.4 | 2.396 | 9.34 to 10 | 9.58 | 9.583 | –
9 | O=C(NC[C@H]1CN(c2ccc(N3CCOCC3)c(F)c2)C(=O)O1)c1ccc(Cl)cc1 [Compound 5c, (S)-4-Chloro-N-((3-(3-fluoro-4-morpholinophenyl)-2-oxooxazolidin-5-yl)methyl) benzamide] | 2 ± 0.1 | 32 ± 0.7 | 73.8 | 32 ± 1.9 | 73.8 | 8 ± 0.3 | – | 18.4 (≈ 8 µg/mL) | 4.61 to 5 | 4.61 | – | – | – | – | –
10 | O=C(NC[C@H]1CN(c2ccc(N3CCOCC3)c(F)c2)C(=O)O1)c1ccc([N+](=O)[O-])cc1 [Compound 5d, (S)-N-((3-(3-Fluoro-4-morpholinophenyl)-2-oxooxazolidin-5-yl)methyl)-4-nitro benzamide] | 1 ± 0.1 | 32 ± 2.2 | 72 | 32 ± 1.6 | 72 | 2 ± 0.1 | – | – | 2.25 | 2.25 | – | 4.5 | 4.5 | – | –
11 | O=C1O[C@@H](CNCc2ccc(F)cc2)CN1c1ccc(N2CCOCC2)c(F)c1 [Compound 11a, (S)-3-(3-Fluoro-4-morpholinophenyl)-5-[{(4-fluorobenzyl)amino}methyl] oxazolidin-2-one] | 32 ± 1.2 | 32 ± 2.5 | 79.3 | 32 ± 2.2 | 79.3 | 32 ± 2.7 | 79.3 (≈ 32 µg/mL) | 79.3 (≈ 32 µg/mL) | – | – | – | – | – | – | –
12 | CC(=O)NC[C@H]1CN(c2ccc(N3CCOCC3)c(F)c2)C(=O)O1 [Linezolid] | 0.25 ± 0.01 | 8 ± 0.2 | 23.7 | 32 ± 0.7 | 94.9 | 2 ± 0.1 | – | – | – | 0.741 | – | 5.93 | 5.93 | – | 94.9
